Results reported in patent US20190231771A1, “METHODS FOR TREATMENT AND PREVENTION OF OPIOID INDUCED CONSTIPATION USING ORAL COMPOSITIONS OF METHYLNALTREXONE” (Salix Pharmaceuticals, Ltd., priority 2011, published 2019).

Tests used:
Format in all cases: in vivo, human
[1] = Study A: single and multiple dose pharmacokinetics after subcutaneous 12 mg methylnaltrexone; conditions: for AUC(0-t) / Cmax: sc, 12 mg; for AUC(0-t): read-out: AUC0-24; for Cmax: read-out: Cmax
Protocol: (§1) Presented herein is a clinical pharmacokinetics study, Study C, as well as Studies A and B. Study A investigated the single and multiple dose pharmacokinetics of methylnaltrexone (MNTX) and its metabolites (M2: methylnaltrexone sulfate; M4: 6α-methylnaltrexol; and M5: 6β-methylnaltrexol) following the subcutaneous administration of 12 mg methylnaltrexone. In Study B, the single and multiple dose pharmacokinetics of methylnaltrexone (MNTX) and its metabolites (M2, M4, and M5) were examined following a 20-minute short intravenous infusion of 24 mg of methylnaltrexone (MNTX).
(§2) Pharmacokinetic parameters included Cmax, AUCt, AUCinf, tmax, t1/2, % Re24, accumulation factor (R) as defined below and metabolite/parent drug ratio.
(§3) R=Accumulation Factor(based on AUC0-24(ng·h/mL):Day 7 AUC AUC0-24/Day 1 AUC0-24
(§4) Metabolite-Parent Drug ratio(based on ng·h/mL)(%)=100*(Metabolite AUC24/MNTX AUC24)
(§5) Note: AUCinf was used in place of AUC AUC0-24 for R and Metabolite-Parent Drug ratio computations following IV administration.

[2] = Study C: single and multiple dose pharmacokinetics of MNTX and metabolites, MNTX 450 mg PO x 7 days; conditions: for bioavailability: oral, MNTX tablets 450 mg, cross-study AUCinf comparison; for bioavailability / half-life / AUC(0-inf) / AUC(0-t) / Cmax: 450 mg; for half-life / AUC(0-inf) / AUC(0-t) / Cmax: po; for AUC(0-t): read-out: AUC0-24; for Cmax: read-out: Cmax
Protocol: as §1
In addition, the urinary elimination of MNTX was characterized.
as §2, §3, §4, §5

[3] = Study B: single and multiple dose pharmacokinetics after 20-minute intravenous infusion of 24 mg methylnaltrexone; conditions: 24 mg IV infusion; for AUC(0-inf) / Cmax: iv, 24 mg; for Cmax: read-out: Cmax
Protocol: as §1, §2, §3, §4, §5

[4] = test system: subjects with chronic non-malignant pain who have Opioid Induced Constipation (OIC); test: Phase 3 randomized double-blind placebo-controlled study of Oral Methylnaltrexone for OIC
Protocol: A phase 3, multicenter, randomized, double-blind, placebo-controlled, parallel-group study of OM for the treatment of OIC in approximately 802 subjects with chronic non-malignant pain was conducted.
Constipation due to opioid use during the screening period: Constipation is defined as <3 Rescue-Free Bowel Movements (RFBMs) per week on average (no laxative use within 24 hours prior to bowel movement) that were associated with 1 or more of the following (based on subject's diary report): • a. A Bristol Stool Form Scale type 1 or 2 for at least 25% of the rescue-free bowel movements. • b. Straining during at least 25% of the rescue-free bowel movements. • c. A sensation of incomplete evacuation after at least 25% of the rescue-free bowel movements.
Subjects who remained eligible at the baseline visit (day 1) were randomly assigned to either OM tablet formulation 150 mg, 300 mg, 450 mg, or placebo initially in a 1:1:1:1 allocation ratio. Subjects were required to take three tablets per day, first thing in the morning on an empty stomach (prior to breakfast). Subjects were instructed to swallow the tablets whole and never to chew, divide, or crush them and wait at least one half hour before ingesting any food. Subjects participated in the study for up to 84 days. The first 28 days were once daily dosing; the remaining 56 days were dosing as needed (PRN). Dosing remained double-blind throughout the 12 week period (84 days). The 84 day treatment period were followed by a 14-day post-treatment follow-up period (±2 days). Enrollment continued until a total of approximately 802 subjects have been randomized and dosed.
At the baseline visit, subjects were randomly assigned to either OM or placebo. Subjects who met all inclusion and no exclusion criteria at the baseline visit (day 1) received study medication. All doses were to be taken in the morning prior to breakfast [The first dose administered at the baseline visit could have been taken after Noon (12:00 pm)] and subjects were instructed to wait at least one half hour before ingesting any food. Subjects participated in the study for up to 84 days: the first 28 days were double-blind once daily dosing; the remaining 56 days were double-blind PRN dosing.
The primary efficacy endpoint of this Phase 3 study was the average proportion of rescue-free laxation responses per subject within 4 hours of all doses during the first four weeks of dosing. The key secondary efficacy endpoints in hierarchical order were:
1. Change in weekly number of RFBM from baseline during Weeks 1 to 4
2. Response (responder/non-responder) to study drug during Weeks 1 to 4, where responder was defined as having ≥3 RFBM/week, with at least 1 RFBM/week increase over baseline, for at least 3 out of the first 4 weeks.
The primary efficacy endpoint was the average proportion of rescue-free laxation responses per subject within 4 hours of all doses during the first 4 weeks of dosing.
The two key secondary efficacy endpoints in hierarchical order were: • 1. Change in weekly number of RFBMs from baseline over the entire first 4 weeks (28 days) of dosing. • 2. Response (responder/non-responder) to study drug during Weeks 1 to 4, where responder is defined as having […], with at least 1 RFBM/week increase over baseline, for at least 3 out of the first 4 weeks. […]

[5] = human, plasma, 12 mg SC Injection, Day 1, mean
[6] = human, plasma, 12 mg SC Injection, Day 7, mean
[7] = human, plasma, 450 mg Tablets oral, Day 1, mean
[8] = human, plasma, 450 mg Tablets oral, Day 7, mean
[9] = 150 mg, 300 mg and 450 mg daily oral vs placebo

With `C[N@+]1(CC2CC2)CC[C@]23c4c5ccc(O)c4O[C@H]2C(=O)CC[C@@]3(O)[C@H]1C5.[Br-]` [MNTX, (R)—N-(cyclopropylmethyl) noroxymorphone methobromide] the AUCinf ([1]; 12 mg SC Injection, Day 7, mean) was 0.223 µg·h/mL, the “R (SC), accumulation factor” value ([1]; 12 mg SC Injection, AUC0-24 on Day 7/AUC0-24 on Day 1) was 1.05 and the AUC(0-t) [1, 5] was 0.218 µg·h/mL. The Cmax [1, 5] was 0.14 µg/mL, the AUC(0-t) [1, 6] was 0.223 µg·h/mL and the Cmax [1, 6] was 0.119 µg/mL. For the same compound, the bioavailability ([1]; human, plasma, subcutaneous, 12 mg SC vs 24 mg IV infusion, cross-study, read-out: bioavailability of subcutaneous injection relative to short-term infusion) was 112%, the AUC(0-inf) [1, 5] was 0.223 µg·h/mL and the Tmax ([1]; human, plasma, 12 mg SC Injection, Day 1, median, read-out: Tmax) was 0.25 h. For the same compound, the half-life ([1]; human, plasma, 12 mg SC Injection, day not given, harmonic mean) was 5.33 h, the “R (PO), accumulation factor” value ([2]; 450 mg Tablets oral, AUC0-24 on Day 7/AUC0-24 on Day 1) was 1.20 and the bioavailability ([2]; human, plasma, multiple dose, read-out: bioavailability relative to IV multiple dose administration) was 5.8%. It also gave a bioavailability ([2]; human, plasma, multiple dose, read-out: bioavailability relative to SC multiple dose administration) of 4.8%, a bioavailability ([2]; human, plasma, single dose, read-out: absolute bioavailability (relative to IV infusion)) of 4.24% and a bioavailability ([2]; human, plasma, single dose, read-out: bioavailability relative to SC injection) of 3.7%. It also gave a half-life ([2]; human, plasma, 450 mg Tablets oral, Day 1, harmonic mean) of 8.8 h, an AUC(0-inf) [2, 7] of 0.315 µg·h/mL and an AUC(0-t) [2, 7] of 0.28 µg·h/mL. It also gave a Cmax [2, 7] of 0.0471 µg/mL, a half-life ([2]; human, plasma, 450 mg Tablets oral, Day 7, harmonic mean) of 19.2 h and an AUC(0-inf) [2, 8] of 0.404 µg·h/mL. The AUC(0-t) [2, 8] was 0.309 µg·h/mL, the Cmax [2, 8] was 0.0455 µg/mL and the Tmax ([2]; human, plasma, 450 mg Tablets oral, Day 1, median, read-out: Tmax) was 2 h. For the same compound, the “R (IV), accumulation factor” value ([3]; AUCinf used) was 1.17, the AUC(0-inf) ([3]; human, in vivo, Day 1, mean) was 0.396 µg·h/mL and the Cmax ([3]; human, in vivo, Day 1, mean) was 0.533 µg/mL. It also gave an AUC(0-inf) ([3]; human, in vivo, Day 7, mean) of 0.375 µg·h/mL, a Cmax ([3]; human, in vivo, Day 7, mean) of 0.52 µg/mL and a half-life ([3]; human, in vivo, day not given) of 10.8 h. For the same compound, the AUC(0-t) ([3]; human, in vivo, day not given, mean, read-out: AUC0-6) was 0.326 µg·h/mL, the “primary efficacy endpoint: average proportion of rescue free bowel movements per subject within 4 hours of all doses during the first 4 weeks of dosing” value [4, 9] was “demonstrate efficacy” and the “secondary efficacy endpoints: change in weekly number of RFBMs from baseline weeks 1-4; response to study drug” value [4, 9] was “further demonstrate efficacy”. The adverse events ([4]; dosages of 150 mg, 300 mg and 450 mg) was “did not result in adverse events”, the “proportion of subjects with rescue free bowel movements within 4 hours of the first dose” value ([4]; first dose of study drug) was “further confirmed efficacy” and the “laxation effects, fasted compared to non-fasted subjects” value ([4]; phase 3 study, following the first dose of study drug) was “increased in fasted subjects compared to non-fasted subjects”.
